Assay type in all cases: in vivo, mouse
The test system of data set [1] is wild type mice. Briefly: Hot plate thermal nociception test in wild type mice. To be noted: cream 1.5 mM, 51° C. hotplate, P28-P42. The protocol: Thermal nociceptive responses in wild type mice treated with either control or XIB4035 (1.5 mM) containing cream were compared using the hotplate test (51° C.) beginning at four weeks of age (p28) and continued to six weeks of age (P42).
(§1) As a first test, a cream containing XIB4035 (1.5 mM) was applied directly to the hind paws of GFAP-DN-erbB4 and wild type mice twice daily for a period of 4 weeks starting prior to symptom onset (P21). Mice of both genotypes were also treated with the base cream containing no drug for control. Mice were tested for responses to a noxious thermal stimulus prior to the initiation of treatment and every 7 days for the duration of the experiment.
Transgenic mouse lines used were as previously described (Lacomis et al., Muscle Nerve 26, 173-188 (2002); Comblath et al., Current opinion in Neurology 19, 446-450 (2006)). Animals were kept in the animal facility with free access to food and water. Behavioral experiments were performed in a quiet environment at the same time of day. The hot plate test was performed using a “controlled hot-plate analgesia meter” (Columbus Instruments) heated to 54° C. Paw withdrawal latency was measured as the time required for the mouse to visibly respond to the thermal stimulus, e.g. licking paws, shaking paws, or jumping off of the plate. […]

For data set [2], the system named is wild type mice. Briefly: Electron microscopy of sciatic nerve Remak bundles, wild type mice. Particulars: WT mice; XIB4035 cream 4 weeks. The protocol: as §1
The cream containing XIB4035 (1.5 mM, ZereneX Molecular Ltd., Manchester, UK) consisted of N-methyl-pyrrolidone (6.25%), isopropyl myristate (6.25%) and petroleum jelly (87.5%). Control cream had the same ingredients without XIB4035. Cream was applied twice daily to the hind paws of mice starting at P21 for a period of 4 weeks for prophylactic treatment of GFAP-DN-erbB4. Diabetic mice were treated twice daily for 8 weeks after streptozotocin (STZ) injection prior to onset of hyperglycemia and for another 8 weeks during neuropathy testing. Cream treatment in therapeutic studies using GFAP-DN-erbB4 mice was performed twice daily beginning after onset of SFN at P28 and either continued for 5 weeks (chronic treatment) or 1 week (acute treatment).
Tissue was prepared as in (Lacomis, supra). Briefly, mice were perfused intracardially with 2% paraformaldehyde, 2.5% gluteraldehyde and 0.03% picric acid in 0.1 M cacodylate buffer (pH 7.2). […]

Data set [3] concerns STZ-induced diabetic mice. Briefly: Hargreaves thermal nociception test in STZ-induced diabetic mice. Particulars: topical cream for 16 weeks from hyperglycemia; tests from week 8. An excerpt: To explore the utility of XIB4035 in a more clinically relevant model, diabetic peripheral neuropathy was selected because more than 50% of all diabetic patients develop some form of peripheral neuropathy, particularly SFN. Streptozotocin (STZ) induced diabetic model was chosen, in which a single injection of STZ kills pancreatic beta cells causing diabetes and produces SFN symptoms several weeks later. Upon becoming hyperglycemic, STZ injected mice were topically treated daily with either control or XIB4035 containing cream for 16 weeks. Thermal nociceptive tests began 8 weeks after initiation of treatment and were repeated every two weeks.
Adult female C57 Bl/6J mice were made diabetic (blood glucose >15 mmol/L) by injection of STZ (90 mg/kg i.p.) on two consecutive days, with confirmation of hyperglycemia made 7 days after STZ delivery. Paw thermal response latency of the right paw was measured every two weeks from weeks 8-16 of diabetes using a modified Hargeaves test, as described
The cream containing XIB4035 (1.5 mM, ZereneX Molecular Ltd., Manchester, UK) consisted of N-methyl-pyrrolidone (6.25%), isopropyl myristate (6.25%) and petroleum jelly (87.5%). Control cream had the same ingredients without XIB4035. Cream was applied twice daily to the hind paws of mice starting at P21 for a period of 4 weeks for prophylactic treatment of GFAP-DN-erbB4. […]

In data set [4] the test system is GFAP-DN-erbB4 mice. As to the kind of experiment: IB4 staining of C-fiber terminals in lamina II of spinal cord dorsal horn. To be noted: cream P28-P35; n=6. The protocol: However, in the clinic, therapy would almost certainly begin after patients present with symptoms of SFN. Therefore, it was determined whether topical XIB4035 can act as a disease-modifying agent in the GFAP-DN-erbB4 neuropathy model starting after animals are clearly symptomatic (P28). […] While IB4 labeling in mutant mice was lower than wild types regardless of treatment, IB4 signal was clearly present in mutant mice treated with XIB4035 while absent in those treated with control cream (FIG. 3D; 83% of XIB4035 treated mice (n=6) with IB4+ lamina II terminals vs 0% (n=4) in control treated mice) (FIG. 3D).
Spinal cords were collected from mice anesthetized with 2.5% Avertin, immersion fixed in 4% paraformaldehyde in 0.1 M phosphate buffer (pH 7.4) for 2 hours at 4° C., and cryoprotected in 20% sucrose overnight at 4° C. Tissue was embedded in OCT, sectioned at 15 μm, and stained mounted on slides. Tissue was blocked for 30 minutes in 0.1M PB+0.3% Triton-X 100+10% normal goat serum and incubated with TrpV1 rabbit polyclonal antibody (AbCAM, 1:2000) and Alexa-488 conjugated isolectin-B4 overnight at 4° C. Sections were washed 3 times for 30 minutes in 0.1M PB+0.3% Triton-X 100+10% normal goat serum followed by incubation with goat anti-rabbit Alexa-594 (Invitrogen) 1:1000 for 1 hour at room temperature.
Spinal cord images were acquired using a Zeiss Axioscope microscope. […]

For the compound `CCN(CC)CCCC(C)Nc1cc(/C=C/c2ccccc2Cl)nc2cc(Cl)ccc12` (centres unmarked) [XIB4035, N4-{7-chloro-2-[(E)-2-(2-chloro-phenyl)-vinyl]-quinolin-4-yl}-N1,N1-diethyl-pentane-1,4-diamine], the thermal hyperalgesia entry in data set [1] was “did not induce thermal hyperalgesia”. In data set [2], this compound yielded a c-fiber area of 1.81 ± 0.06 µm² and a c-fibers/Remak bundle of 8.80 ± 0.52. In addition, in data set [3], the “sensory function (thermal nociceptive tests)” value was “better sensory function than those exposed to the control cream”. The “treated mice with IB4+ lamina II terminals” value in data set [4] was found to be 83%.

These data come from patent US20160045487A1, “COMPOSITIONS AND METHODS FOR TREATING NEUROPATHY” (CHILDEREN'S MEDICAL CENTER CORPORATION, priority 2013, published 2016).
